# Assay results published in ChEMBL document CHEMBL6071133, “Discovery of novel penetrating peptides able to target human leukemia and lymphoma for enhanced PROTAC delivery” (Eur J Med Chem, 2024).
# Legend:
# [1] = Stability of the compound in fetal bovine serum assessed as parent compound remaining measured after 8 hrs by HPLC-MS analysis; format: ADME, cell-free, Bos taurus; conditions: cattle, read-out: Stability
# [2] = Drug uptake in human K562 cells assessed as increase in fluorescence intensity at 1 to 10 uM incubated for 2 hrs by flow cytometry; format: ADME, cell-based; conditions: k562, 2 h, dose 1-10 µM
# [3] = Drug uptake in human CCRF-CEM cells assessed as increase in fluorescence intensity at 1 to 10 umol/L incubated for 2 hrs by cell imaging based fluorescence microscopic analysis; format: ADME; conditions: dose 1-10 µmol/L
# [4] = Cytotoxicity against human THP-1 cells assessed as cell viability at higher concentrations incubated for 48 hrs by MTT assay; format: toxicity, cell-based; conditions: read-out: Activity
# K562 = assay: Potentiation of IMA-PROTAC-induced cytotoxicity against human K562 cells assessed as inhibition of cell growth at compound: IMA-PROTAC concentration ratio of 5:1 incubated for 48 hrs in presence of 10 to 30 umo/L IMA-PROTAC by MTT assay relative to IMA-PROTAC; format: functional
# [5] = Drug uptake in human K562 cells assessed as increase in fluorescence intensity at 5 umol/L measured for 5 to 240 mins by flow cytometry; format: ADME, cell-based; conditions: k562, 5 µM, TDE = time-dependent effect, time 5-240 min, dose 5 µmol/L
# [6] = Drug uptake in human KU812 cells assessed as increase in fluorescence intensity at 1 to 10 umol/L incubated for 2 hrs by cell imaging based fluorescence microscopic analysis; format: ADME; conditions: ku812, 2 h, dose 1-10 µmol/L
# [7] = Drug uptake in human K562 cells assessed as fluorescence intensity at 5 umol/L pretreated with endocytosis inhibitor, methyl-beta-cyclodextrin for 0.5 hrs followed by incubation with compound for 2 hrs by FACS analysis; format: ADME, cell-based; conditions: k562, 2 h, 5 µM, dose 5 µmol/L
# [8] = Drug uptake in human K562 cells assessed as fluorescence intensity at 5 umol/L pretreated with endocytosis inhibitor, chloroquine for 0.5 hrs followed by incubation with compound for 2 hrs by FACS analysis; format: ADME, cell-based; conditions: k562, 2 h, 5 µM, dose 5 µmol/L
smiles,measurement,setting,value
CC(C)C[C@H](NC(=O)[C@H](Cc1csc2ccccc12)NC(=O)[C@@H](Cc1ccccc1)NC(=O)[C@H](Cc1ccccc1)NC(=O)CNC(=O)[C@@H](N)CS)C(=O)N[C@@H](CCCNC(=N)N)C(=O)N[C@@H](CO)C(=O)N[C@@H](CS)C(=O)O,remaining at 8 h,[1],100%
same,Drug uptake,[2],Dose-Dependent Effect
same,Drug uptake,[3],Active
same,viability at 48 h,[4],> 75%
same,inhibition (INH),K562,20%
same,Drug uptake,[5],Tde
same,Drug uptake,[6],Active
same,Drug uptake,[7],Not Active
same,Drug uptake,[8],Not Active
